# Tests used:
# [1] = set-up: method as in PMID 27859436; conditions: mouse, after intravenous dosing of LC-B; cited from earlier work
# HepG2 cells = test system: HepG2 cells; set-up: method as in PMID 26678180; conditions: cited from earlier work
# [2] = set-up: method as in PMID 27521984; conditions: intravenous administration; cited from earlier work
# [3] = Metabolic stability in mouse liver microsomes; conditions: for in vitro t1/2 in mouse liver microsomes: MLM 0.5 mg/mL, NADPH, 37 °C, substrate 1.0 μM (midazolam 0.5 μM)
# prostate cancer PC3 = test system: prostate cancer PC3; set-up: method as in PMID 16595968, PMID 24554216; conditions: cited from earlier work
# [4] = mouse, microsomes
# ovarian carcinoma A-2780 = test system: ovarian carcinoma A-2780; set-up: method as in PMID 16595968, PMID 24554216; conditions: cited from earlier work
# DU145 cells = test system: DU145 cells; set-up: method as in PMID 16595968, PMID 24554216; conditions: cited from earlier work
# [5] = set-up: method as in PMID 24313264; conditions: oral administration; cited from earlier work
# [6] = set-up: method as in PMID 26678180; conditions: cited from earlier work
# [7] = test system: esophageal squamous carcinoma cells; set-up: method as in PMID 28463955; conditions: cotreatment of LC-C and oxaliplatin; cited from earlier work
# [8] = Metabolic stability in human liver microsomes; conditions: pH 7.4
# [9] = Metabolic stability in rat liver microsomes; conditions: pH 7.4
Structure (SMILES),main site of tissue distribution [1],cytotoxicity against HepG2 cells (HepG2 cells),recovery in rat excreta [2],in vitro t1/2 in mouse liver microsomes [3],cytotoxicity against PC3 (prostate cancer PC3),degradation in MLM regardless of the presence of NADPH [4],degradation in MLM with esterase inhibitor dichlorvos [4],cytotoxicity against A-2780 (ovarian carcinoma A-2780),cytotoxicity against DU145 (DU145 cells),bioavailability [5],exposure in tissues [5],fraction metabolized in intestinal microflora [6],chemosensitizing effect of cotreatment with oxaliplatin [7],"half-life at 0.5 μM ([3]; mouse, microsomes, pH 7.4)",half-life at 0.5 μM [8],half-life at 0.5 μM [9]
"CC1(C)C[C@@H]2[C@@]3([C@H](O)C[C@]4(C)[C@@]2(CC[C@@H]2[C@@]5(C)CC[C@H](O[C@@H]6OC[C@H](O[C@@H]7O[C@H](CO)[C@@H](O)[C@H](O)[C@H]7O[C@@H]7OC[C@@H](O)[C@H](O)[C@H]7O)[C@H](O)[C@H]6O[C@@H]6O[C@H](CO)[C@@H](O)[C@H](O)[C@H]6O)C(C)(C)[C@@H]5CC[C@]24C)O[C@@H]3O)[C@@H](O)C1 [LC-A, Capilliposide A]",mainly distributed in mouse liver,significant cytotoxicity,,,,,,,,,,,,,,
"CCCCCC(=O)O[C@H]1CC(C)(C)C[C@@H]2[C@@]13[C@H](O)C[C@]1(C)[C@@]2(CC[C@@H]2[C@@]4(C)CC[C@H](O[C@@H]5OC[C@H](O[C@@H]6O[C@H](CO)[C@@H](O)[C@H](O)[C@H]6O[C@@H]6OC[C@@H](O)[C@H](O)[C@H]6O)[C@H](O)[C@H]5O[C@@H]5O[C@H](CO)[C@@H](O)[C@H](O)[C@H]5O)C(C)(C)[C@@H]4CC[C@]21C)O[C@H]3O [LC-B, Capilliposide B]",,,less than 10%,27.7 min,significant cytotoxicities,obvious degradation,remarkably inhibited,significant cytotoxicities,significant cytotoxicities,poor bioavailability,low exposure in tissues,,,,,
"CC1(C)C[C@H](O[C@@H]2O[C@H](CO)[C@@H](O)[C@H](O)[C@H]2O)[C@@]23[C@H](O)C[C@]4(C)[C@@](CC[C@@H]5[C@@]6(C)CC[C@H](O[C@@H]7OC[C@H](O[C@@H]8O[C@H](CO)[C@@H](O)[C@H](O)[C@H]8O[C@@H]8OC[C@@H](O)[C@H](O)[C@H]8O)[C@H](O)[C@H]7O[C@@H]7O[C@H](CO)[C@@H](O)[C@H](O)[C@H]7O)C(C)(C)[C@@H]6CC[C@]54C)(O[C@@H]2O)[C@@H]3C1 [LC-C, Capilliposide C]",,,,63.0 min,significant cytotoxicities,obvious degradation,remarkably inhibited,significant cytotoxicities,significant cytotoxicities,poor bioavailability,low exposure in tissues,92.7%,chemosenstizing effect,,,
"Cc1ncc2n1-c1ccc(Cl)cc1C(c1ccccc1F)=NC2 [midazolam, Midazolam]",,,,,,,,,,,,,,3.85 min,3.73 min,2.35 min
